Measured values taken from patent publication US6914045B2, “Glycopeptide antibiotics” (Wyeth Holdings Corporation, priority 2001, dated 2005).
Values after ≈ are worked out from the molar mass of the structure shown.

Key:
Assay in all cases: in vitro antibacterial evaluation, MIC by broth dilution
Format in all cases: cell-based
Staphylococcus sp. = conditions: broth dilution, 18 hours at 35° C.
In short: (§1)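 Inoculum 5×10^5 CFU/mL; concentrations 64 to 0.06 μg/mL; MIC defined as lowest inhibitory level. Conducted by broth dilution under NCCLS guidelines.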

Enterococcus sp. = conditions: broth dilution, 18 hours at 35° C.
In short: as §1

Escherichia coli = conditions: 18 hours at 35° C.
In short: as §1

Streptococcus sp. = conditions: broth dilution, 18 hours at 35° C.
In short: as §1

CC(c1ccccc1)C1NC(=O)CNC(=O)C(CO)NC(=O)C(C(O)C2CNC(=N)N2C2OC(CO)C(O)C(O)C2O)NC(=O)C(C(O)C2CNC(=N)N2)NC(=O)C(Cc2ccc(OC3OC(CO)C(OC4OC(CO)C(O)C5OC(c6ccccc6)OC45)C(O)C3O)cc2)NC1=O (single isomer, unassigned) [Example 104b, Cyclo[glycyl-β-methylphenylalanyl-O-[4-O-(2,3-O-benzylidenehexopyranosyl)hexopyranosyl]-tyrosyl-3-(2-iminoimidazolidin-4-yl)seryl-3-(3-hexopyranosyl-2-iminoimidazolidin-4-yl)-serylseryl]]
MIC Coagulase Negative Staphylococcus (GC 4547) (Staphylococcus sp.): 4 µg/mL (≈ 2.89 µM)
MIC Coagulase Negative Staphylococcus (GC 4548) (Staphylococcus sp.): 4 µg/mL (≈ 2.89 µM)
MIC Coagulase Negative Staphylococcus (GC 4549) (Staphylococcus sp.): 4 µg/mL (≈ 2.89 µM)
MIC Coagulase Negative Staphylococcus (GC 4551) (Staphylococcus sp.): 8 µg/mL (≈ 5.78 µM)
MIC Coagulase Negative Staphylococcus (GC 6257) (Staphylococcus sp.): 2 µg/mL (≈ 1.45 µM)
MIC Staphylococcus aureus (ATCC 29213) (Staphylococcus sp.): 0.5 µg/mL (≈ 0.361 µM)
MIC Staphylococcus aureus (GC 1131) (Staphylococcus sp.): 0.5 µg/mL (≈ 0.361 µM)
MIC Staphylococcus aureus (GC 3051) (Staphylococcus sp.): 0.5 µg/mL (≈ 0.361 µM)
MIC Staphylococcus aureus (GC 3053) (Staphylococcus sp.): 0.5 µg/mL (≈ 0.361 µM)
MIC Staphylococcus aureus (GC 4541) (Staphylococcus sp.): 0.5 µg/mL (≈ 0.361 µM)
MIC Staphylococcus aureus (GC 4542) (Staphylococcus sp.): 0.5 µg/mL (≈ 0.361 µM)
MIC Staphylococcus aureus (GC 4544) (Staphylococcus sp.): 0.5 µg/mL (≈ 0.361 µM)
MIC Staphylococcus aureus (GC 4545) (Staphylococcus sp.): 0.5 µg/mL (≈ 0.361 µM)
MIC Staphylococcus aureus-SMITH (GC 4543) (Staphylococcus sp.): 0.5 µg/mL (≈ 0.361 µM)
MIC Staphylococcus haemolyticus (GC 4546) (Staphylococcus sp.): 0.5 µg/mL (≈ 0.361 µM)
MIC Staphylococcus haemolyticus (GC 4546) (Staphylococcus sp.; strain GC 4546): 0.5 µg/mL (≈ 0.361 µM)
MIC Coagulase Negative Staphylococcus (GC 4547) (Staphylococcus sp.; strain GC 4547): 4 µg/mL (≈ 2.89 µM)
MIC Coagulase Negative Staphylococcus (GC 4548) (Staphylococcus sp.; strain GC 4548): 4 µg/mL (≈ 2.89 µM)
MIC Coagulase Negative Staphylococcus (GC 4549) (Staphylococcus sp.; strain GC 4549): 4 µg/mL (≈ 2.89 µM)
MIC Coagulase Negative Staphylococcus (GC 4551) (Staphylococcus sp.; strain GC 4551): 8 µg/mL (≈ 5.78 µM)
MIC Coagulase Negative Staphylococcus (GC 6257) (Staphylococcus sp.; strain GC 6257): 2 µg/mL (≈ 1.45 µM)
MIC Staphylococcus aureus-SMITH (GC 4543) (Staphylococcus sp.; strain SMITH GC 4543): 0.5 µg/mL (≈ 0.361 µM)
MIC Staphylococcus aureus (ATCC 29213) (Staphylococcus sp.; strain ATCC 29213): 0.5 µg/mL (≈ 0.361 µM)
MIC Staphylococcus aureus (GC 1131) (Staphylococcus sp.; strain GC 1131): 0.5 µg/mL (≈ 0.361 µM)
MIC Staphylococcus aureus (GC 3051) (Staphylococcus sp.; strain GC 3051): 0.5 µg/mL (≈ 0.361 µM)
MIC Staphylococcus aureus (GC 3053) (Staphylococcus sp.; strain GC 3053): 0.5 µg/mL (≈ 0.361 µM)
MIC Staphylococcus aureus (GC 4541) (Staphylococcus sp.; strain GC 4541): 0.5 µg/mL (≈ 0.361 µM)
MIC Staphylococcus aureus (GC 4542) (Staphylococcus sp.; strain GC 4542): 0.5 µg/mL (≈ 0.361 µM)
MIC Staphylococcus aureus (GC 4544) (Staphylococcus sp.; strain GC 4544): 0.5 µg/mL (≈ 0.361 µM)
MIC Staphylococcus aureus (GC 4545) (Staphylococcus sp.; strain GC 4545): 0.5 µg/mL (≈ 0.361 µM)
MIC Enterococcus avium (GC 4558) (Enterococcus sp.; Enterococcus avium (GC 4558)): 0.5 µg/mL (≈ 0.361 µM)
MIC Enterococcus faecalis (ATCC 29212) (Enterococcus sp.; Enterococcus faecalis (ATCC 29212)): 0.5 µg/mL (≈ 0.361 µM)
MIC Enterococcus faecalis (GC 2242) (Enterococcus sp.; Enterococcus faecalis (GC 2242)): 0.5 µg/mL (≈ 0.361 µM)
MIC Enterococcus faecalis (GC 2691) (Enterococcus sp.; Enterococcus faecalis (GC 2691)): 0.5 µg/mL (≈ 0.361 µM)
MIC Enterococcus faecalis (GC 3059) (Enterococcus sp.; Enterococcus faecalis (GC 3059)): 0.5 µg/mL (≈ 0.361 µM)
MIC Enterococcus faecalis (GC 4552) (Enterococcus sp.; Enterococcus faecalis (GC 4552)): 0.5 µg/mL (≈ 0.361 µM)
MIC Enterococcus faecalis (GC 4553) (Enterococcus sp.; Enterococcus faecalis (GC 4553)): 0.5 µg/mL (≈ 0.361 µM)
MIC Enterococcus faecalis (GC 4554) (Enterococcus sp.; Enterococcus faecalis (GC 4554)): 0.5 µg/mL (≈ 0.361 µM)
MIC Enterococcus faecalis (GC 6189) (Enterococcus sp.; Enterococcus faecalis (GC 6189)): 0.5 µg/mL (≈ 0.361 µM)
MIC Enterococcus faecium (GC 2243) (Enterococcus sp.; Enterococcus faecium (GC 2243)): 0.5 µg/mL (≈ 0.361 µM)
MIC Enterococcus faecium (GC 4556) (Enterococcus sp.; Enterococcus faecium (GC 4556)): 0.5 µg/mL (≈ 0.361 µM)
MIC Enterococcus faecium (GC 4557) (Enterococcus sp.; Enterococcus faecium (GC 4557)): 0.5 µg/mL (≈ 0.361 µM)
MIC Enterococcus faecalis (ATCC 29212) (Enterococcus sp.; strain ATCC 29212): 0.5 µg/mL (≈ 0.361 µM)
MIC Enterococcus faecalis (GC 2242) (Enterococcus sp.; strain GC 2242): 0.5 µg/mL (≈ 0.361 µM)
MIC Enterococcus faecium (GC 2243) (Enterococcus sp.; strain GC 2243): 0.5 µg/mL (≈ 0.361 µM)
MIC Enterococcus faecalis (GC 2691) (Enterococcus sp.; strain GC 2691): 0.5 µg/mL (≈ 0.361 µM)
MIC Enterococcus faecalis (GC 3059) (Enterococcus sp.; strain GC 3059): 0.5 µg/mL (≈ 0.361 µM)
MIC Enterococcus faecalis (GC 4552) (Enterococcus sp.; strain GC 4552): 0.5 µg/mL (≈ 0.361 µM)
MIC Enterococcus faecalis (GC 4553) (Enterococcus sp.; strain GC 4553): 0.5 µg/mL (≈ 0.361 µM)
MIC Enterococcus faecalis (GC 4554) (Enterococcus sp.; strain GC 4554): 0.5 µg/mL (≈ 0.361 µM)
MIC Enterococcus faecium (GC 4556) (Enterococcus sp.; strain GC 4556): 0.5 µg/mL (≈ 0.361 µM)
MIC Enterococcus faecium (GC 4557) (Enterococcus sp.; strain GC 4557): 0.5 µg/mL (≈ 0.361 µM)
MIC Enterococcus avium (GC 4558) (Enterococcus sp.; strain GC 4558): 0.5 µg/mL (≈ 0.361 µM)
MIC Enterococcus faecalis (GC 6189) (Enterococcus sp.; strain GC 6189): 0.5 µg/mL (≈ 0.361 µM)
MIC Escherichia coli (ATCC 25922) (Escherichia coli; strain ATCC 25922): >0.5 µg/mL
MIC Escherichia coli (GC 4559) (Escherichia coli; strain GC 4559): >0.5 µg/mL
MIC Escherichia coli (GC 4560) (Escherichia coli; strain GC 4560): 0.5 µg/mL (≈ 0.361 µM)
MIC Streptococcus agalactiae (GC 4564) (Streptococcus sp.; Streptococcus agalactiae (GC 4564)): 0.5 µg/mL (≈ 0.361 µM)
MIC Streptococcus pneumoniae (ATCC 6301) (Streptococcus sp.; Streptococcus pneumoniae (ATCC 6301)): 0.12 µg/mL (≈ 0.0867 µM)
MIC Streptococcus pneumoniae (GC 1894) (Streptococcus sp.; Streptococcus pneumoniae (GC 1894)): 0.12 µg/mL (≈ 0.0867 µM)
MIC Streptococcus pneumoniae (GC 4565) (Streptococcus sp.; Streptococcus pneumoniae (GC 4565)): 0.12 µg/mL (≈ 0.0867 µM)
MIC Streptococcus pyogenes (GC 4563) (Streptococcus sp.; Streptococcus pyogenes (GC 4563)): 0.12 µg/mL (≈ 0.0867 µM)
MIC Streptococcus pneumoniae (ATCC 6301) (Streptococcus sp.; strain ATCC 6301): 0.12 µg/mL (≈ 0.0867 µM)
MIC Streptococcus pneumoniae (GC 1894) (Streptococcus sp.; strain GC 1894): 0.12 µg/mL (≈ 0.0867 µM)
MIC Streptococcus pyogenes (GC 4563) (Streptococcus sp.; strain GC 4563): 0.12 µg/mL (≈ 0.0867 µM)
MIC Streptococcus agalactiae (GC 4564) (Streptococcus sp.; strain GC 4564): 0.5 µg/mL (≈ 0.361 µM)
MIC Streptococcus pneumoniae (GC 4565) (Streptococcus sp.; strain GC 4565): 0.12 µg/mL (≈ 0.0867 µM)
